The values that follow come from patent US10344025B2, “GLS1 inhibitors for treating disease” (Board of Regents, The University of Texas System, priority 2014, dated 2019).

pEC50, pIC50: −log10 of the molar value.

For assay [1], the target named is purified recombinant human GAC (GLS1) (Homo sapiens (Human), UniProt O94925). Put plainly: GLS1 Enzymatic Activity Assay (dual-coupled enzymatic assay, resorufin/Amplex UltraRed readout).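 Also: glutamate from GAC coupled via glutamate oxidase and peroxidase to resorufin, read as fluorescence (ex 530, em 590 nm) kinetically or at 20 min, four-parameter logistic IC50 fit.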 It counts as biochemical.
Chain of purified recombinant human GAC (GLS1) (O94925 other isoform, or with tags, fused parts or gaps): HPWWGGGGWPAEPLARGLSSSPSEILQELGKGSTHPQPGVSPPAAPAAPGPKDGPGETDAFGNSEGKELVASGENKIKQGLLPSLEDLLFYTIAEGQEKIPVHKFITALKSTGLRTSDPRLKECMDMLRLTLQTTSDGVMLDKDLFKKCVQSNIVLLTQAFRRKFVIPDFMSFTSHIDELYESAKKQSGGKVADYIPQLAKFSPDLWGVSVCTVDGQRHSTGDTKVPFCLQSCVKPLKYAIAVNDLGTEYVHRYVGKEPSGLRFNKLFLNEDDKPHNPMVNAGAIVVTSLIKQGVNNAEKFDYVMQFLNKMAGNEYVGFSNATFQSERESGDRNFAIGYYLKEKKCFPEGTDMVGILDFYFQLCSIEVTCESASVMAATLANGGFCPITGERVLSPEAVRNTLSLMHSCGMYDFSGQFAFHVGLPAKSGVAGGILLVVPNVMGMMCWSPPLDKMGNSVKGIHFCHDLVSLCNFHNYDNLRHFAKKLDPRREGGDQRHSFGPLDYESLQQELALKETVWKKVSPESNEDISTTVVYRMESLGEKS
The subject of another assay is A549 cells. Put plainly: Proliferation Assay (A549 viability, Cell Titer Fluor, 72 hours). The settings on record: Homo sapiens. It counts as cell-based. The gist of the method: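 Cell Titer Fluor fluorescence after 72 h compound treatment (0.5% DMSO, 37 °C, 5% CO2) of A549 cells plated 24 h earlier at 1000/well. Four-parameter logistic fitting gave IC50.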

For `O=C(CN1CCC(F)(F)C1)Nc1cn(CCCCn2cc(C(=O)NCc3cc(Cl)ccc3F)nn2)nn1` [Example 355, N-[(5-chloro-2-fluorophenyl)methyl]-1-(4-{4-[2-(3,3-difluoropyrrolidin-1-yl)acetamido]-1H-1,2,3-triazol-1-yl}butyl)-1H-1,2,3-triazole-4-carboxamide], in assay [1], the pIC50 was 6.30 to 7.00. This compound showed a pEC50 in the assay with A549 cells (A549, 72 h) of 6.30 to 7.00.
For the compound `O=C(CN1CCC(F)(F)C1)Nc1cn(CCCCn2cc(C(=O)NCc3cc(OC(F)(F)F)ccc3F)nn2)nn1` [Example 356, 1-(4-{4-[2-(3,3-difluoropyrrolidin-1-yl)acetamido]-1H-1,2,3-triazol-1-yl}butyl)-N-{[2-fluoro-5-(trifluoromethoxy)phenyl]methyl}-1H-1,2,3-triazole-4-carboxamide], the pIC50 in assay [1] is more than 7.00. In the assay with A549 cells (A549, 72 h), this compound showed a pEC50 of more than 7.00.
For `O=C(CN1CCC(F)(F)CC1)Nc1cn(CCCCn2cc(C(=O)NCc3cc(Cl)ccc3F)nn2)nn1` [Example 359, N-[(5-chloro-2-fluorophenyl)methyl]-1-(4-{4-[2-(4,4-difluoropiperidin-1-yl)acetamido]-1H-1,2,3-triazol-1-yl}butyl)-1H-1,2,3-triazole-4-carboxamide], in assay [1], the pIC50 is 6.30 to 7.00. The pEC50 in the assay on A549 cells (A549, 72 h) was 6.30 to 7.00.
As for `O=C(CN1CCC(F)(F)CC1)Nc1cn(CCCCn2cc(C(=O)NCc3cc(OC(F)(F)F)ccc3F)nn2)nn1` [Example 360, 1-(4-{4-[2-(4,4-difluoropiperidin-1-yl)acetamido]-1H-1,2,3-triazol-1-yl}butyl)-N-{[2-fluoro-5-(trifluoromethoxy)phenyl]methyl}-1H-1,2,3-triazole-4-carboxamide], in assay [1], the pIC50 was more than 7.00. The compound also showed a pEC50 with A549 cells (A549, 72 h) of more than 7.00.
`O=C(Cc1ccccn1)Nc1cn(CC(F)CCn2cc(C(=O)NCc3cc(OC(F)(F)F)ccc3F)nn2)nn1` (stereo not shown) [Example 363, 1-(3-fluoro-4-{4-[2-(pyridin-2-yl)acetamido]-1H-1,2,3-triazol-1-yl}butyl)-N-{[2-fluoro-5-(trifluoromethoxy)phenyl]methyl}-1H-1,2,3-triazole-4-carboxamide]: in assay [1], the pIC50 is more than 7.00. The same compound gave a pEC50 with A549 cells (A549, 72 h) of more than 7.00.
Take `Cc1ccc(CNC(=O)c2cn(CCC(F)Cn3cc(NC(=O)Cc4ccccn4)nn3)nn2)cn1` (stereo not shown) [Example 364, 1-(3-fluoro-4-{4-[2-(pyridin-2-yl)acetamido]-1H-1,2,3-triazol-1-yl}butyl)-N-[(6-methylpyridin-3-yl)methyl]-1H-1,2,3-triazole-4-carboxamide]: the pIC50 in assay [1] is 6.30 to 7.00. In the assay on A549 cells (A549, 72 h), this compound gave a pEC50 of 5.30 to 6.30.
Consider `O=C(Cc1ccc(Cl)cc1F)Nc1cn(CCCCn2cc(C(=O)NCc3ccccn3)nn2)nn1` [Example 366, 1-(4-{4-[2-(4-chloro-2-fluorophenyl)acetamido]-1H-1,2,3-triazol-1-yl}butyl)-N-(pyridin-2-ylmethyl)-1H-1,2,3-triazole-4-carboxamide], for which the pIC50 in assay [1] was 6.30 to 7.00. In addition, the pEC50 with A549 cells (A549, 72 h) was 5.30 to 6.30.
For the compound `O=C(Cc1ccc(OC(F)(F)F)cc1F)Nc1cn(CCCCn2cc(C(=O)NCc3ccccn3)nn2)nn1` [Example 367, 1-[4-(4-{2-[2-fluoro-4-(trifluoromethoxy)phenyl]acetamido}-1H-1,2,3-triazol-1-yl)butyl]-N-(pyridin-2-ylmethyl)-1H-1,2,3-triazole-4-carboxamide], the pIC50 in assay [1] is more than 7.00. The compound also showed a pEC50 with A549 cells (A549, 72 h) of 6.30 to 7.00.
As for `Cc1ccc(CNC(=O)c2cn(CC(F)CCn3cc(C(=O)NCc4cc(OC(F)(F)F)ccc4F)nn3)nn2)cn1` (stereo not shown) [Example 368, 1-{2-fluoro-4-[4-({[2-fluoro-5-(trifluoromethoxy)phenyl]methyl}carbamoyl)-1H-1,2,3-triazol-1-yl]butyl}-N-[(6-methylpyridin-3-yl)methyl]-1H-1,2,3-triazole-4-carboxamide], the pIC50 in assay [1] was more than 7.00. In addition, in the assay on A549 cells (A549, 72 h), the negative-log EC50 (pEC50) is more than 7.00.
`Cc1ccc(CNC(=O)c2cn(CCC(F)Cn3cc(C(=O)NCc4cc(OC(F)(F)F)ccc4F)nn3)nn2)cn1` (stereo not shown) [Example 370, 1-{3-fluoro-4-[4-({[2-fluoro-5-(trifluoromethoxy)phenyl]methyl}carbamoyl)-1H-1,2,3-triazol-1-yl]butyl}-N-[(6-methylpyridin-3-yl)methyl]-1H-1,2,3-triazole-4-carboxamide]: the pIC50 in assay [1] is more than 7.00. Further, the pEC50 in the assay on A549 cells (A549, 72 h) was more than 7.00.
Turning to `O=C(CN1CC(F)C1)Nc1cn(CC(F)CCn2cc(C(=O)NCc3cccc(OC(F)(F)F)c3)nn2)nn1` (stereo not shown) [Example 371, 1-(3-fluoro-4-{4-[2-(3-fluoroazetidin-1-yl)acetamido]-1H-1,2,3-triazol-1-yl}butyl)-N-{[3-(trifluoromethoxy)phenyl]methyl}-1H-1,2,3-triazole-4-carboxamide], in assay [1], the pIC50 was more than 7.00. The compound further had a pEC50 with A549 cells (A549, 72 h) of 6.30 to 7.00.
Take `O=C(CN1CC(F)C1)Nc1cn(CC(F)CCn2cc(C(=O)NCc3cc(OC(F)(F)F)ccc3F)nn2)nn1` (stereo not shown) [Example 372, 1-(3-fluoro-4-(4-(2-(3-fluoroazetidin-1-yl)acetamido)-1H-1,2,3-triazol-1-yl)butyl)-N-(2-fluoro-5-(trifluoromethoxy)benzyl)-1H-1,2,3-triazole-4-carboxamide]: in assay [1], the pIC50 was more than 7.00. Also, the pEC50 with A549 cells was 6.30 to 7.00.
As for `O=C(NCc1ccccn1)c1cn(CCC(F)Cn2cc(C(=O)NCc3cc(OC(F)(F)F)ccc3F)nn2)nn1` (stereo not shown) [Example 373, 1-{3-fluoro-4-[4-({[2-fluoro-5-(trifluoromethoxy)phenyl]methyl}carbamoyl)-1H-1,2,3-triazol-1-yl]butyl}-N-(pyridin-2-ylmethyl)-1H-1,2,3-triazole-4-carboxamide], the pIC50 in assay [1] is more than 7.00. In addition, in the assay with A549 cells (A549, 72 h), the pEC50 was more than 7.00.
For the compound `O=C(Cc1cc(OC(F)(F)F)ccc1F)Nc1cn(CC(F)CCn2cc(C(=O)NCc3ccccn3)nn2)nn1` (stereo not shown) [Example 375, 1-[3-fluoro-4-(4-{2-[2-fluoro-5-(trifluoromethoxy)phenyl]acetamido}-1H-1,2,3-triazol-1-yl)butyl]-N-(pyridin-2-ylmethyl)-1H-1,2,3-triazole-4-carboxamide], in assay [1], the pIC50 is more than 7.00. This compound also showed a pEC50 in the assay with A549 cells (A549, 72 h) of more than 7.00.
In the case of `Cc1ccc(CNC(=O)c2cn(CCC(F)Cn3cc(NC(=O)Cc4cc(OC(F)(F)F)ccc4F)nn3)nn2)cn1` (stereo not shown) [Example 376, 1-[3-fluoro-4-(4-{2-[2-fluoro-5-(trifluoromethoxy)phenyl]acetamido}-1H-1,2,3-triazol-1-yl)butyl]-N-[(6-methylpyridin-3-yl)methyl]-1H-1,2,3-triazole-4-carboxamide], the pIC50 in assay [1] was more than 7.00. Further, in the assay with A549 cells (A549, 72 h), the pEC50 was more than 7.00.
`O=C(Cc1cc(OC(F)(F)F)ccc1F)Nc1cn(CC(F)CCn2cc(C(=O)NCc3cc(OC(F)(F)F)ccc3F)nn2)nn1` (stereo not shown) [Example 377, 1[3-fluoro-4-(4-{2-[2-fluoro-5-(trifluoromethoxy)phenyl]acetamido}-1H-1,2,3-triazol-1-yl)butyl]-N-{[2-fluoro-5-(trifluoromethoxy)phenyl]methyl}-1H-1,2,3-triazole-4-carboxamide]: the negative logarithm of the IC50 (pIC50) in assay [1] is more than 7.00. The pEC50 in the assay on A549 cells (A549, 72 h) is more than 7.00.
Consider `O=C(Cc1cc(OC(F)(F)F)ccc1F)Nc1cn(CC(F)CCn2cc(C(=O)NCc3ncccc3F)nn2)nn1` (stereo not shown) [Example 378, 1-[3-fluoro-4-(4-{2-[2-fluoro-5-(trifluoromethoxy)phenyl]acetamido}-1H-1,2,3-triazol-1-yl)butyl]-N-[(3-fluoropyridin-2-yl)methyl]-1H-1,2,3-triazole-4-carboxamide], for which, in assay [1], the pIC50 is more than 7.00. Moreover, the pEC50 in the assay on A549 cells (A549, 72 h) is more than 7.00.
Turning to `O=C(Cc1cc(OC(F)(F)F)ccc1F)Nc1cn(CC(F)CCn2cc(C(=O)NCc3cccc(OC(F)(F)F)c3)nn2)nn1` (stereo not shown) [Example 379, 1-[3-fluoro-4-(4-{2-[2-fluoro-5-(trifluoromethoxy)phenyl]acetamido}-1H-1,2,3-triazol-1-yl)butyl]-N-{[3-(trifluoromethoxy)phenyl]methyl}-1H-1,2,3-triazole-4-carboxamide], the negative-log IC50 (pIC50) in assay [1] was more than 7.00. The compound further had a pEC50 with A549 cells (A549, 72 h) of more than 7.00.
`O=C(Cc1cc(OC(F)(F)F)ccc1F)Nc1cn(CCCCn2cc(C(=O)NCc3cccc(OC(F)(F)F)c3)nn2)nn1` [Example 380, 1-[4-(4-{2-[2-fluoro-5-(trifluoromethoxy)phenyl]acetamido}-1H-1,2,3-triazol-1-yl)butyl]-N-{[3-(trifluoromethoxy)phenyl]methyl}-1H-1,2,3-triazole-4-carboxamide]: in assay [1], the pIC50 is more than 7.00. In the assay on A549 cells (A549, 72 h), this compound showed a pEC50 of more than 7.00.
Regarding `O=C(Cc1cc(OC(F)(F)F)ccc1F)Nc1cn(CCCCn2cc(C(=O)NCc3cc(OC(F)(F)F)ccc3F)nn2)nn1` [Example 381, 1-[4-(4-{2-[2-fluoro-5-(trifluoromethoxy)phenyl]acetamido}-1H-1,2,3-triazol-1-yl)butyl]-N-{[2-fluoro-5-(trifluoromethoxy)phenyl]methyl}-1H-1,2,3-triazole-4-carboxamide], the pIC50 in assay [1] was more than 7.00. Moreover, the pEC50 in the assay with A549 cells (A549, 72 h) was more than 7.00.
With `O=C(Cc1cc(OC(F)(F)F)ccc1F)Nc1cn(CCCCn2cc(C(=O)NCc3ncccc3F)nn2)nn1` [Example 382, 1-[4-(4-{2-[2-fluoro-5-(trifluoromethoxy)phenyl]acetamido} 1H-1,2,3-triazol-1-yl)butyl]-N-[(3-fluoropyridin-2-yl)methyl]-1H-1,2,3-triazole-4-carboxamide], the pIC50 in assay [1] is more than 7.00. The pEC50 in the assay with A549 cells (A549, 72 h) was 6.30 to 7.00.
For the compound `Cc1ccc(CNC(=O)c2cn(CCCCn3cc(NC(=O)Cc4cc(OC(F)(F)F)ccc4F)nn3)nn2)cn1` [Example 383, 1-[4-(4-{2-[2-fluoro-5-(trifluoromethoxy)phenyl]acetamido}-1H-1,2,3-triazol-1-yl)butyl]-N-[(6-methylpyridin-3-yl)methyl]-1H-1,2,3-triazole-4-carboxamide], in assay [1], the pIC50 was more than 7.00. Further, the pEC50 in the assay with A549 cells (A549, 72 h) was more than 7.00.
Consider `O=C(Cc1cc(OC(F)(F)F)ccc1F)Nc1cn(CCCCn2cc(C(=O)NCc3cc(Cl)ccc3F)nn2)nn1` [Example 384, N-[(5-chloro-2-fluorophenyl)methyl]-1-[4-(4-{2-[2-fluoro-5-(trifluoromethoxy)phenyl]acetamido}-1H-1,2,3-triazol-1-yl)butyl]-1H-1,2,3-triazole-4-carboxamide], for which the pIC50 in assay [1] was more than 7.00. In addition, the pEC50 in the assay on A549 cells (A549, 72 h) was more than 7.00.
